According to US20220362386A1, “LIQUID COMPOSITIONS COMPRISING A LEVODOPA AMINO ACID CONJUGATE AND USES THEREOF” (NeuroDerm, Ltd., priority 2019, published 2022):
Counter-ions that a name gives are not always drawn. Like-named read-outs stand apart in the source and are kept apart here. Non-standard residues stand in square brackets, D forms with d. Residues, ends and D or L forms follow the SMILES beside them. Dopa = N[C@@H](Cc1ccc(O)c(O)c1)C(=O)O

What was measured:
[1] = In-vitro absorption, Caco-2 A-B permeability; format: in vitro ADME, human; settings: human, Caco-2, pH 7.4, Caco-2 A-B, without verapamil; for Papp A→B at 60 min, 10 μM: 1.0E−05M
Procedure: (§1) Conditions may be adjusted when necessary.
(§2) D denotes donor and R is receiver. […] V is the volume of the donor or receiver.
(§3) The test was performed with and without verapamil, which is a permeation inhibitor, and the results are presented in Tables 22 (without verapamil) and 34 (with verapamil).

P-gp = test: In-vitro absorption, Caco-2 A-B permeability; format: in vitro ADME, human; settings: human, Caco-2, pH 7.4, with verapamil 100 μM on both the A and B sides, Caco-2 A-B, in the presence of verapamil
Procedure: as §1, §2, §3

[2] = Protein binding, equilibrium dialysis method; format: in vitro ADME, human; settings: human, human plasma, pH 7.4, 1.0E-05M
Procedure: (§4) The protein binding values of various LDAA compounds in their TFA salt form (10^−5M) were tested in human plasma. The equilibrium dialysis technique was used to separate the fraction of the test compound that was unbound from the fraction of the test compound that bound to proteins during the test. The test was performed on 96-well plates in a dialysis block constructed from Teflon™.
(§5) The protein containing matrix used was human plasma, wherein the assay matrix was human serum albumin and alpha-1 acid glycoprotein. The protein matrix was spiked with each test compound at 10 μM (by default, n=2) with a final DMSO concentration of 1%. The dialysate compartment is loaded with phosphate buffered saline (PBS, pH 7.4), and the sample compartment was loaded with an equal volume of the spiked protein matrix. The dialysis plate was then sealed and incubated at 37° C. for 4 h.
(§6) Following the incubation, samples were taken from each compartment, diluted with PBS followed by the addition of acetonitrile, after which the samples were centrifuged. The supernatants were collected and analyzed by HPLC-MS/MS. The HPLC tests included a binary LC pump with an autosampler, a C18 column (2×20 mm), and gradient elution. The HPLC conditions were adjusted when necessary.
(§7) A control sample (n=2) was prepared from the spiked protein matrix in the same manner; however, no dialysis was performed on the control. It is noted that the control sample served as the bases for the recovery determination.
(§8) Acebutolol, quinidine, and warfarin were used in each assay as reference compounds, wherein it is known that those reference compounds provide low, medium and high human plasma protein binding values, respectively.
(§9) The % of the tested compound that is bound to proteins and the recovery values were calculated as follows:
(§10) Protein binding (%)=100×(Areap−Areab)/Areap
(§11) Recovery (%)=100×(Areap−Areab)/Areac
(§12) The determination of the recovery % serves as an indicator of reliability of the calculated protein binding value. […] This is most likely due to non-specific binding or degradation of the test compound. It is noted that a recovery of above 60% is considered to be reliable, while under 60% recovery, the results of the test are considered to be unreliable.

human plasma [3] = test: Protein binding, equilibrium dialysis method; format: in vitro ADME; settings: 1.0E-05M; 37° C., 4 h
Procedure: as §4, §5, §6, §7, §8, §9, §10, §11, §12

[4] = Protein binding, solid phase extraction (SPE) method; format: in vitro ADME, human; settings: human, human plasma, 1.0E−05M, SPE sample preparation
Procedure: (§13) A solid phase extraction (SPE) method was used to prepare samples for several compounds in the plasma protein binding assay. The following SPE protocols were followed:
(§14) Sorbent: Waters Oasis MCX 96—well MicroElution Plate—Cat #186001830BA Sample: 200 μL of plasma spiked at 10 μM with test compound. Sample was diluted 1:1 with 4% phosphoric acid in water and mixed for 15 minutes 1) Place Oasis plate on vacuum manifold and set vacuum to 5″ Hg; 2) Condition with 200 μL methanol; 3) Equilibrate with 200 μL water; 4) Load dilute plasma sample; 5) Wash with 200 μL 2% formic acid in water; 6) Wash with 400 μL methanol; and 7) Elute with 100 μL 5% NH4OH in methanol.
as §14, with “MAX 96-well” for “MCX 96—well”, “plate—Cat #186001829” for “Plate—Cat #186001830BA”, “5% NH4OH” for “2% formic acid”, “2% formic acid” for “5% NH4OH”

human plasma [5] = test: as above; format: in vitro ADME; settings: 1.0E−05M; SPE sample preparation
Procedure: as §13, §14
as §14, with “MAX 96-well” for “MCX 96—well”, “plate—Cat #186001829” for “Plate—Cat #186001830BA”, “5% NH4OH” for “2% formic acid”, “2% formic acid” for “5% NH4OH”

[6] = read-out: Percent Recovery Mean

Row | Papp A→B at 60 min, 10 μM ([1]; read-out: Permeability 1st) [×10⁻⁶ cm/s] | Papp A→B at 60 min, 10 μM ([1]; read-out: Permeability 2nd) [×10⁻⁶ cm/s] | recovery at 60 min, 10 μM ([1]; read-out: Percent Recovery 1st) [%] | recovery at 60 min, 10 μM ([1]; read-out: Percent Recovery 2nd) [%] | recovery at 60 min, 10 μM [1, 6] [%] | recovery at 60 min, 10 μM (P-gp; read-out: Percent Recovery 1st) [%] | recovery at 60 min, 10 μM (P-gp; read-out: Percent Recovery 2nd) [%] | recovery at 60 min, 10 μM (P-gp; [6]) [%] | recovery at 4 h, 10 μM ([2]; read-out: % Recovery 1st) [%] | recovery at 4 h, 10 μM ([2]; read-out: % Recovery 2nd) [%] | recovery at 4 h, 10 μM ([2]; read-out: % Recovery Mean) [%] | % Protein Bound 1st (human plasma [3]) [%] | % Protein Bound 2nd (human plasma [3]) [%] | % Protein Bound Mean (human plasma [3]) [%] | SMILES | Papp A→B at 60 min, 10 μM ([1]; read-out: Permeability Mean) [×10⁻⁶ cm/s] | recovery at 10 μM ([4]; read-out: % Recovery 1st) [%] | recovery at 10 μM ([4]; read-out: % Recovery 2nd) [%] | recovery at 10 μM ([4]; read-out: % Recovery Mean) [%] | % Protein Bound 1st (human plasma [5]) [%] | % Protein Bound 2nd (human plasma [5]) [%] | also measured
1 | 0.2 | 0.21 | 82 | 77 | 79 | 58 | 67 | 62 | 75 | 71 | 73 | 24.4 | 27.8 | 26 | N[C@@H](CSC[C@@H](NC(=O)[C@@H](N)Cc1ccc(O)c(O)c1)C(=O)O)C(=O)O (single isomer, unassigned; peak 1) [LD-LA1 TFA salt, Levodopa Lanthionine Peak 1 TFA Salt] | 0.2 | – | – | – | – | – | –
2 | 1.83 | 1.47 | 68 | 70 | 69 | 74 | 69 | 71 | 77 | 78 | 78 | 99.7 | 99.8 | 99 | NC(=O)CC[C@H](NC(=O)[C@@H](N)Cc1ccc(O)c(O)c1)C(=O)O [LD-Gln TFA salt, Levodopa Glutamine TFA Salt] (H-[Dopa]-Gln-OH) | 1.7 | – | – | – | – | – | –

The next lines start with the compound.

Row | SMILES | Papp A→B at 60 min, 10 μM ([1]; read-out: Permeability 1st) [×10⁻⁶ cm/s] | Papp A→B at 60 min, 10 μM ([1]; read-out: Permeability 2nd) [×10⁻⁶ cm/s] | recovery at 60 min, 10 μM ([1]; read-out: Percent Recovery 1st) [%] | recovery at 60 min, 10 μM ([1]; read-out: Percent Recovery 2nd) [%] | recovery at 60 min, 10 μM [1, 6] [%] | recovery at 60 min, 10 μM (P-gp; read-out: Percent Recovery 1st) [%] | recovery at 60 min, 10 μM (P-gp; read-out: Percent Recovery 2nd) [%] | recovery at 60 min, 10 μM (P-gp; [6]) [%] | recovery at 4 h, 10 μM ([2]; read-out: % Recovery 1st) [%] | recovery at 4 h, 10 μM ([2]; read-out: % Recovery 2nd) [%] | recovery at 4 h, 10 μM ([2]; read-out: % Recovery Mean) [%] | % Protein Bound 1st (human plasma [3]) [%] | % Protein Bound 2nd (human plasma [3]) [%] | % Protein Bound Mean (human plasma [3]) [%] | Papp A→B at 60 min, 10 μM ([1]; read-out: Permeability Mean) [×10⁻⁶ cm/s] | recovery at 10 μM ([4]; read-out: % Recovery 1st) [%] | recovery at 10 μM ([4]; read-out: % Recovery 2nd) [%] | recovery at 10 μM ([4]; read-out: % Recovery Mean) [%] | % Protein Bound 1st (human plasma [5]) [%] | % Protein Bound 2nd (human plasma [5]) [%] | also measured
3 | N=C(N)NCCC[C@H](NC(=O)[C@@H](N)Cc1ccc(O)c(O)c1)C(=O)O [LD-Arg TFA salt, Levodopa Arginine TFA Salt] | 0.1 | 0.09 | 26 | 26 | 26 | 25 | 26 | 25 | 6 | 5 | 6 | 44.1 | 26.4 | 35 | < 0.1 | 79 | 79 | 79 | 91.5 | 91.2 | % Protein Bound Mean (human plasma [5]): 91%
4 | N[C@@H](Cc1ccc(O)c(O)c1)C(=O)N[C@@H](CC(=O)O)C(=O)O [LD-Asp TFA salt, Levodopa Aspartic Acid] (H-[Dopa]-Asp-OH) | – | – | – | – | – | – | – | – | 105 | 108 | 107 | 99.1 | 99.4 | 99 | – | 55 | 64 | 60 | 47.8 | 34.1 | % Protein Bound Mean (human plasma [5]): 41%
5 | NCCCC[C@H](NC(=O)[C@@H](N)Cc1ccc(O)c(O)c1)C(=O)O [LD-Lys TFA salt, Levodopa Lysine TFA Salt] (H-[Dopa]-Lys-OH) | 0.12 | 0.09 | 21 | 38 | 30 | 33 | 33 | 33 | 12 | 19 | 16 | 59.5 | 53.1 | 56 | < 0.1 | 79 | 63 | 71 | 0.3 | 18.7 | % Protein Bound Mean (human plasma [5]): 10%
6 | N[C@@H](Cc1ccc(O)c(O)c1)C(=O)N[C@@H](Cc1c[nH]c2ccccc12)C(=O)O [LD-Trp TFA salt, Levodopa Tryptophan] (H-[Dopa]-Trp-OH) | 0.04 | 0.03 | 52 | 51 | 51 | 50 | 45 | 47 | 68 | 74 | 71 | 54.8 | 66 | 60 | – | – | – | – | – | – | –
